From article PMC12493201, “A biosynthetic pathway for ornithine lipid formation dependent on a GH3 (Gretchen Hagen 3)-like enzyme in planctomycetes” (The Journal of Biological Chemistry, 2025)

Target: T1, OlsH (Sinac_1599) (Singulisphaera acidiphila, UniProt L0DAW6)
T1 sequence (L0DAW6 1-526): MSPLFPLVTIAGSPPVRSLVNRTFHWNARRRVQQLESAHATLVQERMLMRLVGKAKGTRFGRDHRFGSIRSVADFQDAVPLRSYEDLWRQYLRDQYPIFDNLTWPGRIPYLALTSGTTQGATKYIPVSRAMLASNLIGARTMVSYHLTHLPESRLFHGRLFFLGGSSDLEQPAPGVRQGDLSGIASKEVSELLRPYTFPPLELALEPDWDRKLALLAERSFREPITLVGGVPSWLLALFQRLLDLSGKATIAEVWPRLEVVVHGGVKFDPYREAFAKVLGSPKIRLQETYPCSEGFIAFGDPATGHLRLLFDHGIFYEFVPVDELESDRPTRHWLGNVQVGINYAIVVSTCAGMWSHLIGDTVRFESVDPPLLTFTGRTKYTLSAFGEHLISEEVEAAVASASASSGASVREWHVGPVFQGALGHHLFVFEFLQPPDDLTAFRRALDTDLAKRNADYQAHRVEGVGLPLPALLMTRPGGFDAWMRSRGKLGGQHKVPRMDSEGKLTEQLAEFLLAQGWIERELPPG
Test: […] N-acyl ornithine formation, TLC / PhosphorImager; empty-vector extract inactive
Type: biochemical
Conditions: ATP, Mg2+, Tris pH 7.9, 30 °C, cell-free E. coli extract

Row | SMILES | 14C N-acyl ornithine formation, TLC / PhosphorImager; empty-vector extract inact (palmitic acid, labelled compound) | 14C N-acyl ornithine formation, TLC / PhosphorImager; empty-vector extract inact ([14C]-ornithine, fatty acid as Triton X-100 micelles)
1 | NCCC[C@H](N)C(=O)O [ornithine] | Adding all compounds resulted in a solid acyl-ornithine signal | 
2 | CCCCCCCCCCCCCCCC(=O)O [palmitic acid] |  | Strong acyl ornithine signals were detected with the three non-hydroxylated fatty acids
